From a melting point compilation (Tetko et al.; mined from patent text by program, amines drawn as free bases though some values may be those of a salt)

melting point [°C] | Compound
144 | CC(C)(C)c1cc2c(cc1O)OC(C(=O)O)=CO2
109 to 112 | CCOC(=O)C1=C(COCCO)Nc2ccnc(OC(C)C)c2C1c1ccccc1C(F)(F)F (stereo not given)
127 to 129 | CNC(c1ccc(O)cc1)c1csc(S(N)(=O)=O)c1 (stereo not given)
239 to 240 | Nc1cc(C(=O)O)cc(S(N)(=O)=O)c1Oc1cccc(Cl)c1
147 to 148 | Cc1ccccc1N1CC(=O)N(C)C(=O)N1
172 to 174 | CC(C)(C)c1cc(SCCC(=O)NC23CC4CC(CC(C4)C2)C3)cc(C(C)(C)C)c1O
136 to 138 | COC1=c2ccccc2=c2ccc(Cl)cc2=C(c2ccccc2F)N1
66 to 67 | N#CCC1COc2ccccc2O1 (stereo not given)
93 to 102 | O=C1CCSc2c1ccc(Cl)c2Cl
203 to 204 | Cc1ccccc1C(=O)Nc1ccc(C(=O)N2CCCC(OCC(=O)N(C)C)c3ccccc32)cc1 (stereo not given)
194 to 195 | CC1(C)OC(=S)Nc2ccc(-c3cccc(F)c3)cc21
> 280 | NC(=O)c1c(Br)cc(Br)c(C(=O)O)c1Br
163 to 164 | CCCc1nccn1S(=O)(=O)c1c[nH]cn1
198 to 201 | COC(=O)c1nc2nc(C(C)C)cc(O)n2n1
129 to 130 | O=C(N[C@H]1CCOC1=O)OCc1ccccc1
172 to 176 | COc1cc(OC)nc(NC(=O)NS(=O)(=O)c2ccccc2CS(=O)(=O)N(C)C)n1
118 to 120 | CCc1cn(C2CC(N=[N+]=[N-])C(CO)O2)c(=O)[nH]c1=O (stereo not given)
140 to 143 | CC(Oc1ccc(Oc2ncc(C(F)(F)F)cc2Cl)cc1)C(=O)Nc1ccc(C(F)(F)F)cc1 (stereo not given)
205 to 207 | O=C1Nc2c(C(F)(F)F)cccc2C1(O)c1cc(Cl)ccc1O (stereo not given)
257 to 259 | O=C1NC(=O)C2(N1)C(=O)N(Cc1ccc(Cl)c(Cl)c1)c1ccc(Cl)cc12 (stereo not given)
203 to 204 | Cc1cc(C)nc(NC(=S)NS(=O)(=O)c2ccccc2-c2ccccc2)n1
217 to 220 | O=C(CCC(F)(F)F)c1c(O)c2cccnc2n(-c2ccccc2)c1=O
114 to 116 | O=C(Nc1nc(Cl)cc(Cl)n1)NS(=O)(=O)Nc1ccccc1C(=O)C1CC1
73 to 75 | CCC(OC(C)=O)C(C)[N+](=O)[O-] (stereo not given)
83 | CCN(CC)C(=O)c1cccnc1OC

melting point [°C] | Compound
192 to 195 | CCOC(=O)c1cc(-c2ccccc2)n(-c2ccc(S(N)(=O)=O)cc2)n1
146 to 148 | COc1cc2[nH]c(N(C)Cc3cccc(OCCO)c3)nc(=O)c2c(OC)c1OC
84.5 to 85.5 | Clc1cc(Cl)c2c(c1)CCC(N1CCCC1)=C2
119 to 120 | c1ccc2c(OCCNCCCc3c[nH]c4ccccc34)cccc2c1
189 to 192 | Cc1cc(O)n(-c2ccc(N3CCOCC3)nn2)n1
244 | CC(=O)NS(=O)(=O)c1cccc(-c2cccc(-c3cc(-c4ccc(C(F)(F)F)cc4)cc(C)n3)n2)c1
120 to 123 | COc1ccc(N)c(C2Cc3ccccc3N2)c1 (stereo not given)
99 to 101 | O=C(C=Cc1ccccc1)Oc1ccc2ccccc2c1
198 to 199 | O=C(Nc1c[nH]nc1C(=O)NCc1ccco1)c1ccccn1
206 to 209 | O=c1c(Cc2ccccc2)cn2c3ccc(Cl)cc3c3cc(Cl)cc1c32
146 to 147 | CC(=O)NCC(=O)Nn1cccc1C(=O)c1ccccc1F
147 | Oc1ccc2c(c1)CCCC(c1ccccc1)=C2c1ccc(OCCCCCSCc2ccc(C(F)(F)F)cc2)cc1
97 | CCOC(=O)c1cc([N+](=O)[O-])ccc1O
189 to 192 | CC12CCC3c4ccc(C(=O)O)cc4CCC3C1CCC2C(=O)c1cccnc1 (stereo not given)
169 to 170 | CCN(CC)CC1CCCCN1CCNC(=O)N1c2cc(Cl)ccc2C(=O)Nc2cccnc21 (stereo not given)
178 to 180 | CC1(C)Oc2ccc(C#N)cc2C(OC(=O)C2CCCN2S(=O)(=O)c2ccc(Cl)cc2)C1Br (stereo not given)
133 to 135 | COC(=O)c1ccc(C(=O)c2ccccc2)cc1
234 to 237 | CC(=O)Nc1ccc(-c2c(NC(C)=O)n(C)c3ccccc23)cc1
201 | CCCCN1CCC(C(=O)O)(S(=O)(=O)c2ccc(Oc3ccc(Cl)cc3)cc2)CC1
100 | Cc1cc(-n2ccnc2)c2cccc(OCc3c(Cl)ccc(S(=O)(=O)N4CCC[C@H]4C(=O)NCCN4CCOCC4)c3Cl)c2n1
194 to 195 | FC(F)(F)c1ccc(-c2cc(Oc3cccc4ccncc34)ncn2)cc1
142 to 147 | COC(=O)c1scc(Cl)c1NC(C)=O
79 to 80 | CCn1cnc2c(Nc3cccc(Cl)c3)nc(NCCN)nc21
120 to 123 | Cc1noc(C)c1COc1cc(-n2c(=O)cc(C(F)(F)F)n(C)c2=O)c(F)cc1Cl
238 to 240 | O=C(Nc1ccccn1)c1cn(-c2ccccc2)c2ccccc2c1=O

melting point [°C] | Compound
109 to 112 | CCc1nc2c(cnn2CC)c(NC2CCOCC2)c1CNC(=O)c1cccc(C(=O)NCc2cc(Cl)cc(Br)c2)c1
210 | O=C(O)c1ccccc1-c1ccc(Cc2nc(-c3ccccc3)nc3ccccc23)cc1
120 to 122 | COc1cccc2cc(SCCC(=O)O)n(C)c12
185 to 186 | CCOC(=O)c1ncn(-c2ccc(C(F)(F)F)cc2N)c1C
141 | Cc1nc(CC2CCN(c3ccccc3)CC2)nc(C(=O)NCC(=O)O)c1O
203 to 206 | c1ccc2c(c1)N=C(N1CCNCC1)c1sccc1N2
66 to 78 | CCOCCn1c(N2CCCN(CCC3(c4cccc(Cl)c4)CCN(C(=O)c4cc(OC)c(OC)c(OC)c4)C3)CC2)nc2ccccc21 (stereo not given)
119 to 122 | CCOCCn1c(CN2CCCN(C)CC2)nc2ccccc21
156 to 158 | CN(C)CCCOc1ccc(-c2nnc(Cc3ccc(Oc4ccccc4)cc3)o2)cc1
121 to 127 | O=C(N[C@H]1CC(=O)N(c2cc(Cc3n[nH]c(=O)c4ccccc34)ccc2F)C1=O)OCc1ccccc1
106 to 107 | N#CCCN1CCOC(c2ccccc2)(c2ccccc2)CC1
209 to 215 | CC(C)CC(=O)Nc1c(C(=O)C2CCCCC2)[nH]c2cc(Cl)ccc12
100 to 105 | O[C@H](COc1cccc2[nH]ccc12)CN1CCC(c2c[nH]c3cc(C(F)(F)F)ccc23)CC1
185 to 186 | Cn1c(Oc2cccc(C(F)(F)F)c2)nc2c(-c3cccc(C(=O)NCC(N)=O)c3)cccc21
> 250 | CC1COCc2nc3c(N)nc4cc(O)ccc4c3n21 (stereo not given)
77 to 78 | Clc1ccc(-c2noc(CCC#Cc3ccccn3)n2)c(Cl)c1
125 to 128 | COc1cccc([C@H]2O[C@H](CC(=O)NCc3ccoc3C(=O)O)C(=O)N(CC(C)(C)CO)c3ccc(Cl)cc32)c1OC
275 | CCNC(=N)N1CCc2[nH]cnc2C1CC (stereo not given)
172 | Cc1nc2c(N)nc3ccccc3c2n1CCCCNC(=O)Nc1ccccc1
183 to 184 | Cc1ccc(-c2cccn2-c2ccc(S(N)(=O)=O)cc2)cc1
136 to 137 | COc1ccc(CCNC(N)=O)cc1OC1CCCC1
210 to 214 | O=C(O)[C@H]1CCCN1C(=O)Cc1ccc(CC(=O)N2CCC[C@@H]2C(=O)O)cc1
161 to 162 | CCCSc1sc(C(=O)OCC)c2c1-c1[nH]ncc1CC2
156 to 158 | CCOC(=O)c1csc(-c2ccc([N+](=O)[O-])cc2)n1
101 | CCN(CC)C(=O)c1nc(-c2ccccc2)c2ccccc2n1

melting point [°C] | Compound
168 to 172 | N=C(N)NCCCOc1ccc2c(c1)CC(CCC(=O)O)C(=O)N2 (stereo not given)
273 to 275 | Cc1c(-c2cccnc2)n(Cc2ccc(C(=O)O)cc2)c2ccccc12
112 | CCCC(=O)Nc1ccccc1Oc1cc(-c2ccc(C(F)(F)F)cc2)ncn1
182 to 184 | COc1cc2c(Nc3ccc(Oc4cccnc4)cc3)c(C#N)cnc2cc1OCC1CCN(C)CC1
105 | CCOc1ccc(C=CC(=O)c2c(OC)cc(OC)cc2OC(=O)CC)cc1
124 to 126 | COc1ccc(C2(C#Cc3cccc(C#N)c3)CCC(=O)CC2)cc1OC1CCCC1
188 to 190 | CON=C(C(N)=O)c1cnccn1
35 to 38 | c1ccc(OCCSCc2nnc(-c3ccc(OCCCCN4CCCCCC4)cc3)o2)cc1
58 to 62 | CC(C)(N)CNC(N)=O
70 to 71 | CCOC(=O)c1[nH]c(C)c(C)c1OCC1CO1 (stereo not given)
150 | CCOC(=O)C1(c2ccc(Cl)cc2)OCC(c2ccc(F)cc2)(c2ccc(F)cc2)CO1
213 to 216 | O=c1[nH]c2ccccc2n1-c1ccc(Cl)cc1Cl
117 to 121 | COc1ccccc1Oc1c(NS(=O)(=O)c2ccc(C(C)(C)C)cc2)nc(SC)nc1OCCOc1ncc(Br)cn1
97 | COc1cc(C(=O)N[C@@H]2c3cc(OC(F)(F)F)ccc3OC(C)(C)[C@H]2O)c([N+](=O)[O-])cc1OC
149 to 151 | CCn1nc2c(cc1=O)CCSc1sc(Br)cc1-2
223 to 224 | CC(C)(C)c1nnc(N)n(N)c1=O
286 | CCc1nc(NC(=O)c2cnn3c(C(F)F)cc(-c4ccc(C(F)(F)F)cc4)nc23)sc1S(=O)(=O)N1CCC(O)C1 (racemic)
97 to 98 | COc1ccc(Sc2ccc3c(c2)OCC(=O)N3)cc1OC
56.5 | CS(=O)(=O)[C@H]1CN(Cc2ccccc2)C[C@@H]1S(C)(=O)=O
173 to 175 | CC(C)n1nc(-c2c(OC3CCCCC3)nc(N)nc2-c2ccccc2)ccc1=O
190 | CS(=O)(=O)c1ccc(C(=O)c2cc(-c3ccc(S(C)(=O)=O)cc3)c(N3CCOCC3)s2)cc1
223 to 224 | C=C(C)C(=O)Nc1cccc2c(O)cccc12
> 210 | CCCOc1ccnc2[nH]cc(-c3ccnc(N)n3)c12

Compound | melting point [°C]
Fc1ccccc1C1=NCC(=S)Nc2ccc(I)cc21 | 242 to 244
Clc1ccc2[nH]cc(C3CCNCC3)c2c1 | 156 to 158
